For one experiment, the target named is T1, HCV NS5B (Hepatitis C virus genotype 1b, UniProt Q9WMX2).
T1 construct: The protein was expressed with an 18 amino acid C-terminal truncation to enhance the solubility; made in house; host or cells: E. coli BL21(DE3)
In words: Modified HCV NS5B RdRp enzyme assay (preincubation protocol). The class given is biochemical. The method, then:
HCV NS5B RdRp cloning, expression, and purification. The cDNA encoding the NS5B protein of HCV, genotype 1b, was cloned into the pET21a expression vector. The protein was expressed with an 18 amino acid C-terminal truncation to enhance the solubility. The E. coli competent cell line BL21(DE3) was used for expression of the protein. Cultures were grown at 37° C. for ˜4 hours until the cultures reached an optical density of 2.0 at 600 nm. The cultures were cooled to 20° C. and induced with 1 mM IPTG. Fresh ampicillin was added to a final concentration of 50 μg/ml and the cells were grown overnight at 20° C.
Cell pellets (3 L) were lysed for purification to yield 15-24 mgs of purified NS5B. The lysis buffer consisted of 20 mM Tris-HCl, pH 7.4, 500 mM NaCl, 0.5% triton X-100, 1 mM DTT, 1 mM EDTA, 20% glycerol, 0.5 mg/ml lysozyme, 10 mM MgCl2, 15 ug/ml deoxyribonuclease I, and Complete TM protease inhibitor tablets (Roche). After addition of the lysis buffer, frozen cell pellets were resuspended using a tissue homogenizer. To reduce the viscosity of the sample, aliquots of the lysate were sonicated on ice using a microtip attached to a Branson sonicator. The sonicated lysate was centrifuged at 100,000×g for 1 hr at 4° C. and filtered through a 0.2 μm filter unit (Corning).
The protein was purified using two sequential chromatography steps: Heparin sepharose CL-6B and polyU sepharose 4B (Pharmacia). The chromatography buffers were identical to the lysis buffer but contained no lysozyme, deoxyribonuclease I, MgCl2 or protease inhibitor and the NaCl concentration of the buffer was adjusted according to the requirements for charging the protein onto the column. Each column was eluted with a NaCl gradient which varied in length from 5-50 column volumes depending on the column type. After the final chromatography step, the resulting purity of the enzyme is >90% based on SDS-PAGE analysis. The enzyme was aliquoted and stored at −80° C.
Standard HCV NS5B RdRp enzyme assay. HCV RdRp genotype 1b assays were run in a final volume of 60 μl in 96 well plates (Corning 3600). The assay buffer is composed of 20 mM Hepes, pH 7.5, 2.5 mM KCl, 2.5 mM MgCl2, 1 mM DTT, 1.6 U RNAse inhibitor (Promega N2515), 0.01 mg/ml BSA (Sigma B6917), and 2% glycerol. All compounds were serially diluted (3-fold) in DMSO and diluted further in water such that the final concentration of DMSO in the assay was 2%. HCV RdRp genotype 1b enzyme was used at a final concentration of 28 nM. A polyA template was used at 6 nM, and a biotinylated oligo-dT12 primer was used at 180 nM final concentration. Template was obtained commercially (Amersham 27-4110). Biotinylated primer was prepared by Sigma Genosys. 3H-UTP was used at 0.6 μCi (0.29 μM total UTP). Reactions were initiated by the addition of enzyme, incubated at 30° C. for 60 min, and stopped by adding 25 μl of 50 mM EDTA containing SPA beads (4 μg/μl, Amersham RPNQ 0007). Plates were read on a Packard Top Count NXT after >1 hr incubation at room temperature.
Modified HCV NS5B RdRp enzyme assay. A modified enzyme assay was performed essentially as described for the standard enzyme assay except for the following: The biotinylated oligo dT12 primer was precaptured on streptavidin-coated SPA beads by mixing primer and beads in assay buffer and incubating at room temperature for one hour. Unbound primer was removed after centrifugation. The primer-bound beads were resuspended in 20 mM Hepes buffer, pH 7.5 and used in the assay at final concentrations of 20 nM primer and 0.67 μg/μl beads. Order of addition in the assay: enzyme (1.75 nM) was added to diluted compound followed by the addition of a mixture of template (0.36 nM), 3H-UTP (0.6 μCi, 0.29 μM), and primer-bound beads, to initiate the reaction; concentrations given are final. Reactions were allowed to proceed for 4 hours at 30° C.
IC50 values for compounds were determined using seven different [I]. […]

The next experiment relates to HCV replicon cells. In words: HCV replicon FRET assay. The class given is cell-based. The note with it: Hepatitis C virus. As for the experimental part:
FRET Assay Preparation. The HCV FRET screening assay was performed in 96-well cell culture plates. The FRET peptide (Anaspec, Inc.) (Taliani et al., Anal. Biochem. 1996, 240, 60-67) contains a fluorescence donor, EDANS, near one end of the peptide and an acceptor, DABCYL, near the other end. The fluorescence of the peptide is quenched by […] resonance energy transfer (RET) between the donor and the acceptor, but as the NS3 protease cleaves the peptide the products are released from RET quenching and the fluorescence of the donor becomes apparent. The assay reagent was made as follows: 5× cell Luciferase cell culture lysis reagent from Promega (#E153A) diluted to 1× with dH2O, NaCl added to 150 mM final, the FRET peptide diluted to 20 μM final from a 2 mM stock.
To prepare plates, HCV replicon cells, with or without a Renilla luciferase reporter gene, were trypsinized and plated in a 96-well plate with titrated test compounds added in columns 3 through 12; columns 1 and 2 contained a control compound (HCV control inhibitor), and the bottom row contained cells with DMSO only. The plates were then placed in a CO2 incubator at 37° C.
Assays. Subsequent to addition of the test compounds described above (FRET Assay Preparation), at various times the plate was removed and Alamar blue solution (Trek Diagnostics, #00-100) was added to measure cellular toxicity. After reading in a Cytoflour 4000 instrument (PE Biosystems), plates were rinsed with PBS and then used for FRET assay by the addition of 30 ul of the FRET peptide assay reagent described above (FRET Assay Preparation) per well. The plate was then placed into the Cytoflour 4000 instrument which had been set to 340 excite/490 emission, automatic mode for up to 20 cycles and the plate read in a kinetic mode. Typically, the signal to noise using an endpoint analysis after the reads was at least three-fold. Alternatively, after Alamar blue reading, plates were rinsed with PBS, then used for luciferase assay using the Promega Dual-Glo Luciferase Assay System or the Promega EnduRen Live Cell Substrate assay.
Compound analysis was performed by quantification of the relative HCV replicon inhibition and the relative cytotoxicity values. To calculate cytoxicity values, the average Alamar Blue fluorescence signals from the control wells were set as 100% non-toxic. The individual signals in each of the compound test wells were then divided by the average control signal and multiplied by 100% to determine […]. To calculate the HCV replicon inhibition values, an average background value was obtained from the two wells containing the highest amount of HCV control inhibitor at the end of the assay period. These numbers were similar to those obtained from naïve Huh-7 cells. The background numbers were then subtracted from the average signal obtained from the control wells and this number was used as 100% activity. The individual signals in each of the compound test wells were then divided by the averaged control values after background subtraction and multiplied by 100% to determine percent activity. EC50 values were calculated as the concentration which caused a 50% reduction in FRET or luciferase activity. The two numbers generated for the compound plate, percent cytoxicity and percent activity, were used to determine compounds of interest for further analysis.
On the technique in general: In antiviral work, replicon cells carry a viral genome segment that copies itself.

T1 sequence (Q9WMX2 2420-2992): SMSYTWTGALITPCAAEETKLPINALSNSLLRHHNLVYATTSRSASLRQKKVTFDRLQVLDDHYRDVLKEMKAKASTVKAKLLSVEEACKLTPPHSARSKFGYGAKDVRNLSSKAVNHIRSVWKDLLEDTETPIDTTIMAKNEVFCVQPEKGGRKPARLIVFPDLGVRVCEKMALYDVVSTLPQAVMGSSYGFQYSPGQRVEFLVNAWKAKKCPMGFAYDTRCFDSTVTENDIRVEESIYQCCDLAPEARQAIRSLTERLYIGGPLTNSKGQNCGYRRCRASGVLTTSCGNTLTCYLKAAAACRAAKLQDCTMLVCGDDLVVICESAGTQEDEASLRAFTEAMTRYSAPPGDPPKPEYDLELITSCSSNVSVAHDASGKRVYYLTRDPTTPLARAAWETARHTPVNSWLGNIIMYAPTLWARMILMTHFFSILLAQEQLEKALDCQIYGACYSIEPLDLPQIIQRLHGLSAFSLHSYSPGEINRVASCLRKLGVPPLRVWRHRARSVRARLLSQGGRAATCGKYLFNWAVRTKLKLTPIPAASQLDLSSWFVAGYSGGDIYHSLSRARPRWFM

On to `COc1ccc2c(c1)C=C(C(=O)N1CCCC13CCN(C)CC3)Cn1c-2c(C2CCCCC2)c2ccc(C(=O)NS(=O)(=O)C(C)C)cc21`, for which the IC50 (in general, the concentration at which inhibition is half-maximal) at HCV NS5B is 4.58 to 500 nM. Also, in the experiment with HCV replicon cells, the EC50 (commonly the midpoint of the concentration-response curve) lay within 4.58 to 500 nM.

With `COc1ccc2c(c1)C1CC1(C(=O)N1CCCC3(CCN(C)C3=O)C1)Cn1c-2c(C2CCCCC2)c2ccc(C(=O)NS(=O)(=O)C3CC3)cc21` (stereo not drawn), the IC50 against HCV NS5B lay in the range of 4.58 to 500 nM. This molecule also displayed a half-maximal effective concentration (EC50) with HCV replicon cells of 4.58 to 500 nM.

Molecule `COc1ccc2c(c1)C1CC1(C(=O)N1CCCC3(CCN(C)C3=O)C1)Cn1c-2c(C2CCCCC2)c2ccc(C(=O)NS(=O)(=O)C(C)C)cc21` (stereo not drawn) [drawing 21] returned an IC50 against HCV NS5B of 4.58 to 500 nM. This molecule came in with an EC50 in the experiment with HCV replicon cells of 4.58 to 500 nM.

These data come from patent US8124601B2, “Compounds for the treatment of Hepatitis C” (Bristol-Myers Squibb Company, priority 2007, dated 2012).
